# Laboratory results: patent US8293773B2, “1, 2, 3-triazole derivatives as new cannabinoid-1 receptor antagonists” (National Tsing Hua University, priority 2008, dated 2012)
# Legend:
# human CB1 receptor = target: T1, human CB1 receptor (Homo sapiens, UniProt P21554); assay: competitive radioligand binding assay, displacement of [3H]CP55,940, CB1; details: for IC50: displacement of specific [3H]-CP55940 binding in HEK 293 cells stably transfected with human CB1 receptor; for inhibition at 10 µM / CB1 Inhibition (%) (10 μM): percent inhibition at 10 μM
# T1 construct: expressed in transfected cells; membrane-enriched fractions
# Procedure: (§1) In addition, the affinity of test compounds of this invention toward CB1 and CB2 receptors was determined by competitive radioligand binding assays in vitro. This method differentiates the binding strength between compounds by their abilities in displacing a receptor-specific radioactive ligand. […] The readings of the radioactivity retained allow further analysis of receptor binding, and assist in predictions of the pharmacological activities of the test compounds.
# (§2) In the assays, CB1 receptors are from human CB1 stably expressed cell lines, and CB2 receptors are from human CB2 stably expressed cell lines. For purification of membrane-enriched fractions, cells were scraped off from the culture dishes in ice-cold buffer A (50 mM Tris, 5 mM MgCl2, 2.5 mM EDTA, pH 7.4, 10% sucrose) with 1 mM PMSF. After sonication, the membrane-enriched fractions were centrifuged for 15 minutes at 2,000×g at 4° C. The supernatant was centrifuged again for 30 minutes at 43,000×g at 4° C. The final pellet was re-suspended in buffer A and stored at −80° C. The protein concentration of the purified membrane was determined by the Bradford method as described by the manual provided by Bio-Rad Laboratories, Inc., Hercules, Calif.
# (§3) During the receptor binding experiments, 0.2˜8 μg of membrane fractions were incubated with 0.75 nM [^3H]CP55,940 and a test compound in the incubation buffer of 50 mM Tris-HCl, 5 mM MgCl2, 1 mM EDTA, 0.3% BSA, pH 7.4. The non-specific binding was determined by using 1 μM of CP55,940. The mixture was incubated for 1.5 hours at 30° C. in Multiscreen microplates (Millipore, Billerica, Mass.). At the completion of the incubation, the reaction was terminated by Manifold filtration and washed with ice-cold wash buffer (50 mM Tris, pH 7.4, 0.25% BSA) four times. The radioactivity bound to the filters was measured by Topcount (Perkin Elmer Inc.).
# human CB2 receptor = target: T2, human CB2 receptor (Homo sapiens, UniProt P34972); assay: competitive radioligand binding assay, displacement of [3H]CP55,940, CB2; details: cells printed in μM
# T2 construct: expressed in transfected cells; membrane-enriched fractions
# Procedure: as §1, §2, §3
# T1 sequence (P21554 whole entry): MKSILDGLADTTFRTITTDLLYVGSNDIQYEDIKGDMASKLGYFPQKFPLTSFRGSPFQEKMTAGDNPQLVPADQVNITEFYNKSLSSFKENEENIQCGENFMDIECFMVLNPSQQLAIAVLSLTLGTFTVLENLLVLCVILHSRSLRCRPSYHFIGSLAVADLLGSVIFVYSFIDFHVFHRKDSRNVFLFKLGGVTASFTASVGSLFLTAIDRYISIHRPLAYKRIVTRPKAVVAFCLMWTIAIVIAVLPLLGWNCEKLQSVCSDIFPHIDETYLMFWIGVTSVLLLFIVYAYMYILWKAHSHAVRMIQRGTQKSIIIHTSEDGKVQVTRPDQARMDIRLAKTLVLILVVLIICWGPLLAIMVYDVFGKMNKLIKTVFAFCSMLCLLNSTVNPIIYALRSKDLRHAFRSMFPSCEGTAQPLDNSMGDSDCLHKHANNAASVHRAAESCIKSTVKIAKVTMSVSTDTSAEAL
# T2 sequence (P34972 whole entry): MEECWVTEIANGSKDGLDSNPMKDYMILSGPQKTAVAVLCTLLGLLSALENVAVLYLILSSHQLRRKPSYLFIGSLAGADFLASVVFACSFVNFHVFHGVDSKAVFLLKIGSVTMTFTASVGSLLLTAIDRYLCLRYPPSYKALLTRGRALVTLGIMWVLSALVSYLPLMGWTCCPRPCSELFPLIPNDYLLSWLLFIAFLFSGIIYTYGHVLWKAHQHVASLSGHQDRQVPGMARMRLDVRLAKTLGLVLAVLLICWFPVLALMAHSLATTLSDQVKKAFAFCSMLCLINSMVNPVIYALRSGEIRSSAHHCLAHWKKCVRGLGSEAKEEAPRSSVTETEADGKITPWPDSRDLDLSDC
structure (smiles),measurement,setting,value
COc1ccccc1CNC(=O)Cn1nc(-c2ccc(Cl)cc2Cl)c(-c2ccc(Cl)cc2Cl)n1 [Compound 196],IC50,human CB1 receptor,0.125 ± 0.0231 µM
same,IC50,human CB2 receptor,> 10 µM
Cc1cccc(CNC(=O)Cn2nc(-c3ccc(Cl)cc3Cl)c(-c3ccc(Cl)cc3Cl)n2)c1 [Compound 188],IC50,human CB1 receptor,0.0517 ± 0.0155 µM
same,IC50,human CB2 receptor,> 10 µM
CC(NC(=O)Cn1nc(-c2ccc(Cl)cc2Cl)c(-c2ccc(Cl)cc2Cl)n1)c1ccccc1 (stereo not shown) [Compound 202],IC50,human CB1 receptor,0.048 ± 0.0111 µM
same,IC50,human CB2 receptor,> 10 µM
COc1ccc(CNC(=O)Cn2nc(-c3ccc(Cl)cc3Cl)c(-c3ccc(Cl)cc3Cl)n2)cc1 [Compound 146],inhibition at 10 µM,human CB1 receptor; Table 2,94.8%
same,IC50,human CB1 receptor,0.0819 ± 0.0442 µM
same,IC50,human CB2 receptor,> 10 µM
O=C(Cn1nc(-c2ccc(Cl)cc2)c(-c2ccc(Cl)cc2Cl)n1)NCc1ccc(F)cc1 [Compound 162],inhibition at 10 µM,human CB1 receptor; Table 2,90.5%
same,IC50,human CB1 receptor,0.449 ± 0.0679 µM
same,IC50,human CB2 receptor,> 10 µM
O=C(Cn1nc(-c2ccc(Cl)cc2Cl)c(-c2ccc(Cl)cc2Cl)n1)NCc1ccc(F)cc1F [Compound 190],IC50,human CB1 receptor,0.0459 ± 0.0184 µM
same,IC50,human CB2 receptor,> 10 µM
CCCOC(=O)Cn1nnc(-c2ccc(Cl)cc2)c1-c1ccc(Cl)cc1 [Compound 32],inhibition at 10 µM,human CB1 receptor; Table 1,28.3%
CCCCOC(=O)Cn1nnc(-c2ccc(Cl)c(Cl)c2)c1-c1ccc(Cl)c(Cl)c1 [Compound 6],inhibition at 10 µM,human CB1 receptor; Table 1,50.5%
CCCCOC(=O)Cn1nnc(-c2ccccc2)c1-c1ccc([N+](=O)[O-])cc1 [Compound 41],inhibition at 10 µM,human CB1 receptor; Table 1,14.7%
Cc1ccccc1CNC(=O)Cn1nc(-c2ccc(Cl)cc2)c(-c2ccc(Cl)cc2Cl)n1 [Compound 148],inhibition at 10 µM,human CB1 receptor; Table 2,94.5%
same,IC50,human CB1 receptor,0.592 ± 0.302 µM
CCCCCCCCNC(=O)n1nc(-c2ccc(Cl)cc2Cl)c(-c2ccc(Cl)cc2Cl)n1 [Compound 98],CB1 Inhibition (%) (10 μM),human CB1 receptor; Table 2,19.40%
O=C(Cn1nc(-c2ccc(Cl)cc2)c(-c2ccc(Cl)cc2Cl)n1)NCc1ccc(F)c(F)c1 [Compound 166],inhibition at 10 µM,human CB1 receptor; Table 2,88.3%
CCCCOC(=O)Cn1nnc(-c2cccc(F)c2)c1-c1cccc(F)c1 [Compound 22],inhibition at 10 µM,human CB1 receptor; Table 1,27.1%
O=C(Cn1nc(-c2ccc(Cl)cc2Cl)c(-c2ccc(Cl)cc2Cl)n1)N[C@H]1c2ccccc2C[C@H]1O [Compound 127],inhibition at 10 µM,human CB1 receptor; Table 2,89.4%
same,IC50,human CB1 receptor,1.24 ± 0.697 µM
O=C(Cn1nc(-c2ccc(Cl)cc2)c(-c2ccc(Cl)cc2Cl)n1)NCc1ccccc1Cl [Compound 159],inhibition at 10 µM,human CB1 receptor; Table 2,87.3%
same,IC50,human CB1 receptor,0.365 ± 0.16 µM
O=C(Cn1nc(-c2ccc(Cl)cc2Cl)c(-c2ccc(Cl)cc2Cl)n1)NC1CCCCC1 [Compound 119],inhibition at 10 µM,human CB1 receptor; Table 2,74.2%
CCCCOC(=O)Cn1nc(-c2ccc(Cl)cc2)c(-c2ccc(Cl)cc2Cl)n1 [Compound 118],inhibition at 10 µM,human CB1 receptor; Table 2,67.4%
O=C(NC12CC3CC(CC(C3)C1)C2)n1nc(-c2ccc(Cl)cc2)c(-c2ccc(Cl)cc2Cl)n1 [Compound 108],inhibition at 10 µM,human CB1 receptor; Table 2,34.5%
O=C(Cn1nnc(-c2cccc(F)c2)c1-c1cccc(F)c1)N1CCCCC1 [Compound 18],inhibition at 10 µM,human CB1 receptor; Table 1,19.7%
CCCCCCOC(=O)Cn1nnc(-c2ccc(Cl)cc2Cl)c1-c1ccc(Cl)cc1 [Compound 56],inhibition at 10 µM,human CB1 receptor; Table 1,47.7%
O=C(Cn1nc(-c2ccc(Cl)cc2)c(-c2ccc(Cl)cc2Cl)n1)NCc1cccc(F)c1 [Compound 161],inhibition at 10 µM,human CB1 receptor; Table 2,87.7%
same,IC50,human CB1 receptor,0.529 ± 0.144 µM
CC(C)(C)C(=O)n1nc(-c2ccc(Cl)cc2Cl)c(-c2ccc(Cl)cc2Cl)n1 [Compound 68],inhibition at 10 µM,human CB1 receptor; Table 2,24.2%
CCCCCCCCN(CCCCCCCC)C(=O)Cn1nnc(-c2ccccc2)c1-c1ccccc1 [Compound 39],inhibition at 10 µM,human CB1 receptor; Table 1,4.1%
CCCCOC(=O)Cn1nnc(-c2ccc(C(F)(F)F)cc2)c1-c1ccc(C(F)(F)F)cc1 [Compound 35],inhibition at 10 µM,human CB1 receptor; Table 1,46%
CCCCOC(=O)Cn1nnc(-c2ccccc2)c1-c1ccccc1 [Compound 1],inhibition at 10 µM,human CB1 receptor; Table 1,40.8%
CCCCOC(=O)Cn1nnc(-c2cccc(Cl)c2)c1-c1cccc(Cl)c1 [Compound 19],inhibition at 10 µM,human CB1 receptor; Table 1,36.7%
O=C(CCn1nnc(-c2ccccc2)c1-c1ccccc1)N1CCCCC1 [Compound 43],inhibition at 10 µM,human CB1 receptor; Table 1,34.4%
O=C(NCc1ccccc1)n1nc(-c2ccc(Cl)cc2)c(-c2ccc(Cl)cc2Cl)n1 [Compound 105],inhibition at 10 µM,human CB1 receptor; Table 2,18.6%
CCCCCCCCNC(=O)n1nc(-c2ccc(Cl)cc2)c(-c2ccc(Cl)cc2)n1 [Compound 82],inhibition at 10 µM,human CB1 receptor; Table 2,26.9%
CCCCOC(=O)Cn1nnc(-c2ccc(Cl)cc2)c1-c1ccc(Cl)cc1 [Compound 14],inhibition at 10 µM,human CB1 receptor; Table 1,64.1%
CCCCC(=O)n1nc(-c2ccc(Cl)cc2)c(-c2ccc(Cl)cc2)n1 [Compound 83],inhibition at 10 µM,human CB1 receptor; Table 2,11.8%
CC(C)N(C(=O)Cn1nnc(-c2ccccc2)c1-c1ccccc1)C(C)C [Compound 5],inhibition at 10 µM,human CB1 receptor; Table 1,18%
O=C(Cn1nc(-c2ccc(Cl)cc2)c(-c2ccc(Cl)cc2Cl)n1)N1CCCCC1 [Compound 129],inhibition at 10 µM,human CB1 receptor; Table 2,76.5%
same,IC50,human CB1 receptor,0.587 ± 0.139 µM
O=C(Cn1nc(-c2ccc(Cl)cc2Cl)c(-c2ccc(Cl)cc2Cl)n1)N[C@H]1c2ccccc2C[C@H]1OC(=O)Cn1nc(-c2ccc(Cl)cc2Cl)c(-c2ccc(Cl)cc2Cl)n1 [Compound 128],inhibition at 10 µM,human CB1 receptor; Table 2,13.6%
O=C(Cn1nc(-c2ccc(Cl)cc2Cl)c(-c2ccc(Cl)cc2Cl)n1)N[C@@H](CO)[C@H](O)c1ccc([N+](=O)[O-])cc1 [Compound 135],inhibition at 10 µM,human CB1 receptor; Table 2,60.1%
O=C(NC1CCCCC1)n1nc(-c2ccc(Cl)cc2)c(-c2ccc(Cl)cc2)n1 [Compound 80],inhibition at 10 µM,human CB1 receptor; Table 2,29.9%
CCCCOC(=O)Cn1nncc1-c1ccccc1 [Compound 13],inhibition at 10 µM,human CB1 receptor; Table 1,22%
CCCCOC(=O)CNC(=O)n1nc(-c2ccc(Cl)cc2)c(-c2ccc(Cl)cc2)n1 [Compound 109],inhibition at 10 µM,human CB1 receptor; Table 2,58.1%
CCCCCCOC(=O)Cn1nnc(-c2ccc(Cl)cc2)c1-c1ccc(Cl)cc1 [Compound 28],inhibition at 10 µM,human CB1 receptor; Table 1,36.5%
C[C@H](NC(=O)Cn1nc(-c2ccc(Cl)cc2)c(-c2ccc(Cl)cc2Cl)n1)C(O)(c1ccccc1)c1ccccc1 [Compound 143],inhibition at 10 µM,human CB1 receptor; Table 2,80%
same,IC50,human CB1 receptor,0.789 ± 0.202 µM
CCCCCCCCNC(=O)n1nc(-c2ccc(Cl)cc2Cl)c(-c2ccc(Cl)cc2Cl)n1 [Compound 77],inhibition at 10 µM,human CB1 receptor; Table 2,27.5%
CCCCOC(=O)Cn1nnc(-c2ccc(Cl)cc2Cl)c1-c1ccc(Cl)cc1Cl [Compound 54],inhibition at 10 µM,human CB1 receptor; Table 1,71.7%
O=C(Cn1nc(-c2ccc(Cl)cc2)c(-c2ccc(Cl)cc2Cl)n1)NCc1ccccc1C(F)(F)F [Compound 158],inhibition at 10 µM,human CB1 receptor; Table 2,92.5%
same,IC50,human CB1 receptor,0.302 ± 0.133 µM
CCCCOC(=O)Cn1nnc(-c2ccc(OC)cc2)c1-c1ccccc1 [Compound 30],inhibition at 10 µM,human CB1 receptor; Table 1,40%
CCCCOC(=O)Cn1nnc(-c2ccccc2)c1-c1ccc(Cl)cc1 [Compound 36],inhibition at 10 µM,human CB1 receptor; Table 1,35.2%
O=C(NCCc1ccccc1)n1nc(-c2ccc(Cl)cc2Cl)c(-c2ccc(Cl)cc2Cl)n1 [Compound 91],inhibition at 10 µM,human CB1 receptor; Table 2,11.2%
CCCCOC(=O)Cn1nnc(-c2ccc(C(=O)OC)cc2)c1-c1ccc(C(=O)OC)cc1 [Compound 61],inhibition at 10 µM,human CB1 receptor; Table 1,46.1%
CSc1ccc([C@@H](O)[C@@H](CO)NC(=O)Cn2nc(-c3ccc(Cl)cc3Cl)c(-c3ccc(Cl)cc3Cl)n2)cc1 [Compound 136],inhibition at 10 µM,human CB1 receptor; Table 2,66.3%
O=C(NC1CCCCC1)n1nc(-c2ccc(Cl)cc2)c(-c2ccc(Cl)cc2)n1 [Compound 100],CB1 Inhibition (%) (10 μM),human CB1 receptor; Table 2,19.90%
CCCCOC(=O)Cn1nnc(-c2ccc(F)c(Cl)c2)c1-c1ccc(F)c(Cl)c1 [Compound 21],inhibition at 10 µM,human CB1 receptor; Table 1,15.7%
CCCCOC(=O)CNC(=O)n1nc(-c2ccc(Cl)cc2)c(-c2ccc(Cl)cc2Cl)n1 [Compound 104],inhibition at 10 µM,human CB1 receptor; Table 2,11.8%
O=C(Cn1nc(-c2ccc(Cl)cc2Cl)c(-c2ccc(Cl)cc2Cl)n1)N[C@@H](CO)[C@H](O)c1ccccc1 [Compound 137],inhibition at 10 µM,human CB1 receptor; Table 2,59.3%
CCCCOC(=O)Cn1nnc(-c2ccccc2)c1-c1ccc(C)cc1 [Compound 37],inhibition at 10 µM,human CB1 receptor; Table 1,26.5%
O=C(NC1CCCCC1)n1nc(-c2ccc(Cl)cc2Cl)c(-c2ccc(Cl)cc2Cl)n1 [Compound 74],CB1 Inhibition (%) (10 μM),human CB1 receptor; Table 2,50.80%
CCCCCNC(=O)n1nc(-c2ccc(Cl)cc2)c(-c2ccc(Cl)cc2Cl)n1 [Compound 90],inhibition at 10 µM,human CB1 receptor; Table 2,14.4%
